The NIST ThermoML archive (doi:10.1021/acs.jced.8b00064)
Numbers after ± are expanded uncertainties.

Key:
[1] = for vapor or sublimation pressure: Liquid, Closed cell (Static) method
[2] = molar heat capacity at constant pressure; settings: 101.33 kPa, Crystal, DSC
[3] = Molar enthalpy of transition or fusion; settings: Crystal; DSC

CCCCO [butan-1-ol]
[1]
Settings | vapor or sublimation pressure [kPa]
333.2 K | 8.1 ± 0.61
348.2 K | 17.5 ± 0.61

O=C(O)CC(O)(CC(=O)O)C(=O)O [citric acid]
Settings | Normal melting temperature [°C]
[1], Crystal, DTA | 151.8 ± 2

[2]
Settings | molar heat capacity at constant pressure [J/K/mol]
324.9 K | 239.8 ± 26
328.2 K | 243 ± 26
331.5 K | 245.9 ± 26
334.9 K | 248.6 ± 26
338.2 K | 251.2 ± 27
341.5 K | 253.6 ± 27
344.9 K | 255.9 ± 27
348.2 K | 258.2 ± 27
351.5 K | 260.4 ± 28
354.9 K | 262.5 ± 28
358.2 K | 264.6 ± 28
361.5 K | 266.6 ± 28
364.9 K | 268.7 ± 28
368.2 K | 270.7 ± 29
371.5 K | 272.6 ± 29
374.9 K | 274.5 ± 29
378.2 K | 276.2 ± 29
381.5 K | 278.1 ± 30
384.9 K | 279.9 ± 30
388.2 K | 281.8 ± 30
391.5 K | 283.7 ± 30
394.9 K | 286 ± 30

Settings | Molar enthalpy of transition or fusion [kcal/mol]
[3] | 14.1 ± 0.311
